Results from US7109243B2 (IRM LLC, priority 2003, dated 2006).

Experiments:
[1] = target: Cathepsin S (Homo sapiens, UniProt P25774); test: Cathepsin S inhibition assay (fluorogenic peptide substrate); assay type: biochemical; settings: Table II, compounds of Formula I; read-out: Ki Cat. S
In short: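 Ki values come from nonlinear fitting of inhibited hydrolysis rates, taking free and total inhibitor concentrations as equal. Rates measured as rising fluorescence at 380/450 nm after reaction start with 50 μM final acetyl-HPVK-aminocarbamoylcoumarin.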

[2] = target: T1, Cathepsin K (Homo sapiens, UniProt P43235); test: Cathepsin K inhibition assay (fluorogenic peptide substrate); selectivity ratio vs cathepsin S; assay type: biochemical; settings: ratio of cathepsin K inhibition constant to cathepsin S inhibition constant; Table II
T1 sequence (P43235 115-329): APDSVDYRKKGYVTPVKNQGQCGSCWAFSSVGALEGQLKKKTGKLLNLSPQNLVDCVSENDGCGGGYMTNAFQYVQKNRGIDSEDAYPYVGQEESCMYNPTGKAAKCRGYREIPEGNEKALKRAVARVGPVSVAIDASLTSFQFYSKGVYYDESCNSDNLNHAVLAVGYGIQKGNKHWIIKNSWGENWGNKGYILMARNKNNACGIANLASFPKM
In short: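 Fluorogenic kinetic assay, started with acetyl-Lys-His-Pro-Lys-aminocarbamoylcoumarin at 40 μM final, hydrolysis followed at ex 380/em 450 nm. Apparent inhibition constants from progress curves, converted to competitive inhibition constants. Selectivity expressed as isozyme inhibition constant divided by cathepsin S inhibition constant.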

Sequence of Cathepsin S (P25774 115-331, species assumed): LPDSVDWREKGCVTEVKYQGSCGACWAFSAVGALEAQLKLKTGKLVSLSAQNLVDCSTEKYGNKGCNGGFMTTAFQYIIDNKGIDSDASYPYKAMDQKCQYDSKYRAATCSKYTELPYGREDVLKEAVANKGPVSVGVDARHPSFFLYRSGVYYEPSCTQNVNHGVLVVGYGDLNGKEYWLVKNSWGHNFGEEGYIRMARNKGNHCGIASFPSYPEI

Ki [1] [nM] | Selectivity for Cat. S over Cat. K [2] | Compound
< 100 | +++ (+++, >1000) | COc1ccc(NCCNC(=O)[C@H](Cc2ccccc2C(F)(F)F)NC(=O)c2cccc(C)c2)cc1 [Compound 239, (S)-N-[1-[2-(4-Methoxy-phenylamino)-ethylcarbamoyl]-2-(2-trifluoromethyl-phenyl)-ethyl]-3-methyl-benzamide]
< 100 | +++ (+++, >1000) | COc1ccc(NCCNC(=O)[C@H](Cc2ccc(C#N)cc2)NC(=O)c2cccc(C)c2)cc1 [Compound 240, (S)-N-{2-(4-Cyano-phenyl)-1-[2-(4-methoxy-phenylamino)-ethylcarbamoyl]-ethyl}-3-methyl-benzamide]
< 100 | +++ (+++, >1000) | COc1ccc(NCCNC(=O)[C@H](Cc2ccc(Br)cc2)NC(=O)c2cccc(C)c2)cc1 [Compound 241, (S)-N-{2-(4-Bromo-phenyl)-1-[2-(4-methoxy-phenylamino)-ethylcarbamoyl]-ethyl}-3-methyl-benzamide]
< 100 | +++ (+++, >1000) | COc1ccc(NCCNC(=O)[C@H](Cc2ccc(I)cc2)NC(=O)c2cccc(C)c2)cc1 [Compound 242, (S)-N-{2-(4-Iodo-phenyl)-1-[2-(4-methoxy-phenylamino)-ethylcarbamoyl]-ethyl}-3-methyl-benzamide]
< 1000 | +++ (+++, >1000) | COc1ccc(NCCNC(=O)[C@H](Cc2ccc([N+](=O)[O-])cc2)NC(=O)c2cccc(C)c2)cc1 [Compound 244, (S)-N-[1-[2-(4-Methoxy-phenylamino)-ethylcarbamoyl]-2-(4-nitro-phenyl)-ethyl]-3-methyl-benzamide]
< 100 | +++ (+++, >1000) | COc1ccc(NCCNC(=O)[C@H](Cc2ccc(F)cc2)NC(=O)c2cccc(C)c2)cc1 [Compound 245, (S)-N-{2-(4-Fluoro-phenyl)-1-[2-(4-methoxy-phenylamino)-ethylcarbamoyl]-ethyl}-3-methyl-benzamide]
< 100 | ++ (++, >100) | O=C(N[C@@H](CC1CCCCC1)C(=O)NCCNc1ccc(OC(F)(F)F)cc1)c1ccc(-c2cccc(C(F)(F)F)c2)o1 [Compound 246, (S)-5-(3-Trifluoromethyl-phenyl)-furan-2-carboxylic acid {2-cyclohexyl-1-[2-(4-trifluoromethoxy-phenylamino)-ethylcarbamoyl]-ethyl}-amide]
< 100 | +++ (+++, >1000) | COc1ccc(NCCNC(=O)[C@H](Cc2ccc(OCc3ccccc3)cc2)NC(=O)c2cccc(C)c2)cc1 [Compound 247, (S)-N-{2-(4-Benzyloxy-phenyl)-1-[2-(4-methoxy-phenylamino)-ethylcarbamoyl]-ethyl}-3-methyl-benzamide]
< 100 | +++ (+++, >1000) | COc1ccc(NCCNC(=O)[C@H](Cc2ccc(OCc3c(Cl)cccc3Cl)cc2)NC(=O)c2cccc(C)c2)cc1 [Compound 248, (S)-N-{2-[4-(2,6-Dichloro-benzyloxy)-phenyl]-1-[2-(4-methoxy-phenylamino)-ethylcarbamoyl]-ethyl}-3-methyl-benzamide]
< 100 | ++ (++, >100) | Cc1nc(N)sc1C(=O)N[C@@H](CC1CCCCC1)C(=O)NCCNc1ccc(OC(F)(F)F)cc1 [Compound 250, 2-Amino-4-methyl-thiazole-5-carboxylic acid (S)-{2-cyclohexyl-1-[2-(4-trifluoromethoxy-phenylamino)-ethylcarbamoyl]-ethyl}-amide]
< 100 | +++ (+++, >1000) | O=C(N[C@@H](CC1CCCCC1)C(=O)NCCNc1ccc(OC(F)(F)F)cc1)c1ccc(-c2cc(C(F)(F)F)ccc2Cl)o1 [Compound 251, (S)-5-(2-Chloro-5-trifluoromethyl-phenyl)-furan-2-carboxylic acid {2-cyclohexyl-1-[2-(4-trifluoromethoxy-phenylamino)-ethylcarbamoyl]-ethyl}-amide]
< 100 | +++ (+++, >1000) | COc1ccc(NCCNC(=O)[C@H](Cc2cccc(C(F)(F)F)c2)NC(=O)c2cccc(C)c2)cc1 [Compound 252, (S)-N-[1-[2-(4-Methoxy-phenylamino)-ethylcarbamoyl]-2-(3-trifluoromethyl-phenyl)-ethyl]-3-methyl-benzamide]
< 1000 | ++ (++, >100) | COc1ccc(NCCNC(=O)[C@H](COCc2ccccc2)NC(=O)c2cccc(C)c2)cc1 [Compound 254, (S)-N-{2-Benzyloxy-1-[2-(4-methoxy-phenylamino)-ethylcarbamoyl]-ethyl}-3-methyl-benzamide]
< 1000 | ++ (++, >100) | COc1ccc(NCCNC(=O)[C@H](Cc2ccc(C(C)(C)C)cc2)NC(=O)c2cccc(C)c2)cc1 [Compound 255, (S)-N-{2-(4-tert-Butyl-phenyl)-1-[2-(4-methoxy-phenylamino)-ethylcarbamoyl]-ethyl}-3-methyl-benzamide]
< 100 | +++ (+++, >1000) | COc1ccc(NCCNC(=O)[C@H](Cc2c[nH]c3ccccc23)NC(=O)c2cccc(C)c2)cc1 [Compound 257, (S)-N-{2-(1H-Indol-3-yl)-1-[2-(4-methoxy-phenylamino)-ethylcarbamoyl]-ethyl}-3-methyl-benzamide]
< 100 | +++ (+++, >1000) | COc1ccc(NCCNC(=O)[C@H](Cc2cccc3ccccc23)NC(=O)c2cccc(C)c2)cc1 [Compound 258, (S)-N-{1-[2-(4-Methoxy-phenylamino)-ethylcarbamoyl]-2-naphthalen-1-yl-ethyl}-3-methyl-benzamide]
< 1000 | ++ (++, >100) | COc1ccc(NCCNC(=O)[C@@H](NC(=O)c2cccc(C)c2)C(C)OCc2ccccc2)cc1 (stereo partly drawn) [Compound 259, (S)-N-{2-Benzyloxy-1-[2-(4-methoxy-phenylamino)-ethylcarbamoyl]-propyl}-3-methyl-benzamide]
< 100 | ++ (++, >100) | O=C(Cc1cccc(F)c1)N[C@@H](CC1CCCCC1)C(=O)NCCNc1ccc(F)cc1 [Compound 260, 3-Cyclohexyl-2-(S)-[2-(3-fluoro-phenyl)-acetylamino]-N-[2-(4-fluoro-phenylamino)-ethyl]-propionamide]
< 100 | ++ (++, >100) | O=C(N[C@@H](CC1CCCCC1)C(=O)NCCNc1ccc(F)cc1)c1ccco1 [Compound 264, Furan-2-carboxylic acid (S)-{2-cyclohexyl-1-[2-(4-fluoro-phenylamino)-ethylcarbamoyl]-ethyl}-amide]
< 1000 | ++ (++, >100) | O=C(Cn1cnnn1)N[C@@H](CC1CCCCC1)C(=O)NCCNc1ccc(F)cc1 [Compound 265, 3-Cyclohexyl-N-[2-(4-fluoro-phenylamino)-ethyl]-2-(S)-(2-tetrazol-1-yl-acetylamino)-propionamide]
< 1000 | + (+, >10) | COc1ccc(NCCNC(=O)C(NC(=O)c2cccc(C)c2)C(C)c2ccc([N+](=O)[O-])cc2)cc1 (stereo not drawn) [Compound 266, N-[1-[2-(4-Methoxy-phenylamino)-ethylcarbamoyl]-2-(4-nitro-phenyl)-propyl]-3-methyl-benzamide]
< 100 | +++ (+++, >1000) | COc1ccc(NCCNC(=O)[C@H](Cc2ccc(Oc3cccc(C)c3)cc2)NC(=O)c2cccc(C)c2)cc1 [Compound 267, (S)-N-[1-[2-(4-Methoxy-phenylamino)-ethylcarbamoyl]-2-(4-m-tolyloxy-phenyl)-ethyl]-3-methyl-benzamide]
< 1000 | ++ (++, >100) | COc1ccc(NCCNC(=O)C(NC(=O)c2cccc(C)c2)C(C)c2ccccc2)cc1 (stereo not drawn) [Compound 268, threo-N-{1-[2-(4-Methoxy-phenylamino)-ethylcarbamoyl]-2-phenyl-propyl}-3-methyl-benzamide]
< 10000 | + (+, >10) | COc1ccc(NCCNC(=O)C(NC(=O)c2cccc(C)c2)C(C)c2ccccc2)cc1 (stereo not drawn) [Compound 269, erythro-N-{1-[2-(4-Methoxy-phenylamino)-ethylcarbamoyl]-2-phenyl-propyl}-3-methyl-benzamide]
< 1000 | ++ (++, >100) | COc1ccc(NCCNC(=O)[C@H](Cc2ccc(-c3cccc([N+](=O)[O-])c3)cc2)NC(=O)c2cccc(C)c2)cc1 [Compound 271, (S)-N-[1-[2-(4-Methoxy-phenylamino)-ethylcarbamoyl]-2-(3′-nitro-biphenyl-4-yl)-ethyl]-3-methyl-benzamide]
< 100 | ++ (++, >100) | O=C(N[C@@H](CC1CCCCC1)C(=O)NCCNc1ccc(F)cc1)c1ccoc1 [Compound 272, Furan-3-carboxylic acid (S)-{2-cyclohexyl-1-[2-(4-fluoro-phenylamino)-ethylcarbamoyl]-ethyl}-amide]
< 1000 | ++ (++, >100) | COc1ccc(NCCNC(=O)[C@H](Cc2ccc(-c3ccccc3[N+](=O)[O-])cc2)NC(=O)c2cccc(C)c2)cc1 [Compound 273, (S)-N-[1-[2-(4-Methoxy-phenylamino)-ethylcarbamoyl]-2-(2′-nitro-biphenyl-4-yl)-ethyl]-3-methyl-benzamide]
